Experimental data: patent publication US20150250172A1, “USE OF ANTHRANILAMIDE COMPOUNDS IN SOIL AND SEED TREATMENT APPLICATION METHODS” (BASF SE, priority 2012, published 2015)

Key:
[1] = test system: Western Corn Rootworm (Diabrotica virgifera virgifera); assay: whole plant or invertebrate; type: in vivo; details: 72 h, 50 ppm a.i./soil (w/w), second-instar larvae, 3 days after infestation, read-out: mortality in comparison with untreated controls
[2] = test system: Black Cutworm (Agrotis ipsilon); assay: whole plant or invertebrate; type: in vivo; details: 72 h, 5 ppm a.i./soil (w/w), second-instar larvae, 3 days after infestation, read-out: mortality in comparison with untreated controls
[3] = test system: western corn rootworm (Chrysomelidae: Diabrotica virgifera virgifera); assay: Plant emergence, shoot height and root mass, corn seed treatment against western corn rootworm (B.2.2); type: in vivo; details: for % Control (Based on root mass relative to infested and uninfested control) / % Control (Based on shoot height relative to infested and uninfested control) / Mean Root Mass / Mean Shoot Height: 7 days after infestation
Description: B.2.2 Plant Emergence, Shoot Height and Root Mass in Treatment Against Western Corn Rootworm (Chrysomelidae: Diabrotica virgifera virgifera). The compounds according to the invention, in formulated form, and other diamide compounds (chlorantraniliprole: Altacor® and Coragen®) were tested for activity against western corn rootworm. Pots were filled with soil mixture (1:1 loamy sand:sand) and watered prior to treatment and planting. Formulations were diluted in distilled water and then applied to 20 g corn seed in a volume of 188 μl in a Hege 11 liquid seed treater and spun for 30 s. One seed was planted per pot 1-3 days after treatment. Five replicates (pots) were prepared for each treatment. Pots were arranged in a randomized complete block design in the greenhouse and top watered daily. At 5-6 days after planting (DAP), 12 western corn rootworm larvae (2nd instar) were infested in each pot. After infestation, pots were maintained in a growth chamber (26° C., 10 hours light:14 hours dark) and bottom-watered as needed. Plant emergence and shoot phytotoxicity were evaluated 5 DAP. Shoot height and fresh root mass were evaluated 7 days after infestation (DAI).

[4] = test system: seedcorn maggot (Anthomyiidae: Delia platura); assay: Root length of cucumber in treatment against seedcorn maggot (B.2.1); details: 9 days after treatment, 7 days after infestation; for % Control (Relative to infested and uninfested solvent blank): cucumber root length; for Mean Root Length: cucumber
[5] = Table EXP-B.2.2-1, 0.5 g ai/kg seed, 13 days after planting
[6] = Table EXP-B.2.2-1, 1.0 g ai/kg seed, 13 days after planting
[7] = Table EXP-B.2.2-1, corn seed treatment, 0.5 g ai/kg seed
[8] = Table EXP-B.2.2-1, corn seed treatment, 1.0 g ai/kg seed
[9] = Table EXP-B.2.2-2, 0.5 g ai/kg seed, 12 days after planting
[10] = Table EXP-B.2.2-2, 1.0 g ai/kg seed, 12 days after planting
[11] = Table EXP-B.2.2-2, corn seed treatment, 0.5 g ai/kg seed
[12] = Table EXP-B.2.2-2, corn seed treatment, 1.0 g ai/kg seed
[13] = Table EXP-B.2.2-2, 1.5 g ai/kg seed, 12 days after planting

SMILES	mortality at 50 ppm [1] [%]	mortality at 5 ppm [2] [%]	% Control (Based on root mass relative to infested and uninfested control) [3, 5] [%]	% Control (Based on shoot height relative to infested and uninfested control) [3, 5] [%]	Mean Root Mass [3, 5] [g]	Mean Shoot Height [3, 5] [cm]	% Control (Based on root mass relative to infested and uninfested control) [3, 6] [%]	% Control (Based on shoot height relative to infested and uninfested control) [3, 6] [%]	Mean Root Mass [3, 6] [g]	Mean Shoot Height [3, 6] [cm]	Plant Emergence (%) 5 days after planting [3, 7] [%]	Plant Emergence (%) 5 days after planting [3, 8] [%]	% Control (Based on root mass relative to infested and uninfested control) [3, 9] [%]	% Control (Based on shoot height relative to infested and uninfested control) [3, 9] [%]	Mean Root Mass [3, 9] [g]	Mean Shoot Height [3, 9] [cm]	% Control (Based on root mass relative to infested and uninfested control) [3, 10] [%]	Plant Emergence (%) 5 days after planting [3, 11] [%]	% Control (Relative to infested and uninfested solvent blank) ([4]; rate 1 ppm) [%]	Mean Root Length ([4]; rate 1 ppm) [cm]	other results
CCS(CC)=NC(=O)c1cc(Cl)cc(C)c1NC(=O)c1cc(C(F)(F)F)nn1-c1ncccc1Cl [Compound I-11, 2-(3-chloro-2-pyridyl)-N-[2-methyl-4-chloro-6-[(diethyl-λ^4-sulfanylidene)carbamoyl]phenyl]-5-(trifluoromethyl)pyrazole-3-carboxamide]	> 70	> 70	100	36	0.680	26.7	100	100	0.678	33.8	100	100	12	49	0.490	27.3	48	100	–	–	% Control (Based on shoot height relative to infested and uninfested control) [3, 10]: 100%; Mean Root Mass [3, 10]: 0.631 g; Mean Shoot Height [3, 10]: 33.8 cm; Plant Emergence (%) 5 days after planting [3, 12]: 100%
CCS(CC)=NC(=O)c1cc(Cl)cc(Cl)c1NC(=O)c1cc(C(F)(F)F)nn1-c1ncccc1Cl [Compound I-16, 2-(3-chloro-2-pyridyl)-N-[2,4-dichloro-6-[(diethyl-λ^4-sulfanylidene)carbamoyl]phenyl]-5-(trifluoromethyl)pyrazole-3-carboxamide]	> 70	> 70	37	76	0.541	30.2	40	58	0.547	28.6	100	100	38	100	0.590	35.3	68	100	100	11.0	% Control (Based on shoot height relative to infested and uninfested control) [3, 10]: 83%; Mean Root Mass [3, 10]: 0.705 g; Mean Shoot Height [3, 10]: 31.2 cm; Plant Emergence (%) 5 days after planting [3, 12]: 100%
Cc1cc(Cl)cc(C(=O)N=S(C(C)C)C(C)C)c1NC(=O)c1cc(C(F)(F)F)nn1-c1ncccc1Cl [Compound I-21, 2-(3-chloro-2-pyridyl)-N-[2-methyl-4-chloro-6-[(bis-2-propyl-λ^4-sulfanylidene)carbamoyl]phenyl]-5-(trifluoromethyl)pyrazole-3-carboxamide]	> 70	> 70	100	49	0.688	27.8	100	69	0.701	29.6	100	100	33	86	0.570	31.6	–	100	–	–	% Control (Based on root mass relative to infested and uninfested control) [3, 13]: 40%; % Control (Based on shoot height relative to infested and uninfested control) [3, 13]: 83%; Mean Root Mass [3, 13]: 0.598 g; Mean Shoot Height [3, 13]: 31.2 cm; Plant Emergence (%) 5 days after planting ([3]; Table EXP-B.2.2-2, corn seed treatment, 1.5 g ai/kg seed): 100%
CC(C)S(=NC(=O)c1cc(Cl)cc(Cl)c1NC(=O)c1cc(C(F)(F)F)nn1-c1ncccc1Cl)C(C)C [Compound I-26, 2-(3-chloro-2-pyridyl)-N-[2,4-dichloro-6-[(bis-2-propyl-λ^4-sulfanylidene)carbamoyl]phenyl]-5-(trifluoromethyl)pyrazole-3-carboxamide]	> 70	> 70	–	–	–	–	–	–	–	–	–	–	–	–	–	–	–	–	–	–	–
CNC(=O)c1cc(Cl)cc(C)c1NC(=O)c1cc(Br)nn1-c1ncccc1Cl [chlorantraniliprole]	–	–	–	–	–	–	–	–	–	–	–	–	–	–	–	–	–	–	49	8.4	% Control (Relative to infested and uninfested solvent blank) ([4]; rate 10 ppm): 63%; Mean Root Length ([4]; rate 10 ppm): 9.0 cm
CNC(=O)c1cc(C#N)cc(C)c1NC(=O)c1cc(Br)nn1-c1ncccc1Cl [cyantraniliprole]	–	–	–	–	–	–	–	–	–	–	–	–	–	–	–	–	–	–	19	7.1	% Control (Relative to infested and uninfested solvent blank) ([4]; rate 10 ppm): 93%; Mean Root Length ([4]; rate 10 ppm): 10.3 cm
